Results published in patent US6562804B2, “Hair-growing agent” (Kyowa Hakko Kogyo Co., Ltd., priority 2001, dated 2003).

System: mouse hair follicle epithelial cells
Test: Cell growth-promoting effect on cultured mouse hair follicle epithelial cells (MTT)
Type: cell-based
Details: C3H mouse hair follicle epithelial cells, 5 days culture, DMSO control = 100
Experimental: Mouse hair follicle epithelial cells were separated and cultured according to a modification of the method of Tanigaki, et al. [Archives of Dermatological Research, 284, 290-296 (1992)].
The skin on the back of a 4-days-old C3H mouse (Charles River Japan, Inc.) was cut off and treated with MEM (Eagle's Minimum Essential Medium) containing 500 units/ml Dispase (Godo Shusei Co., Ltd.) and 5% fetal calf serum (FCS) at 4° C. for 16 hours.
Then, the epidermis was stripped from the skin section, and the obtained dermis layer was treated with DMEM (Dulbecco's modified Eagle Medium) containing 0.25% Collagenase N-2 (Nitta Gelatin Co., Ltd.) and 10% FCS at 37° C. for one hour to obtain a dermis suspension. The dermis suspension was filtered through a 212-μm nylon mesh (Nippon Rikagaku Kikai Co., Ltd.) and the filtrate was centrifuged at 1000 rpm for 5 minutes to obtain pellets containing hair follicle tissue. To the pellets was added calcium/magnesium-free PBS (Dulbecco's Phosphate-Buffered Saline) and the pellets were suspended therein using a pipette. The resulting suspension was allowed to stand for 15 minutes to precipitate hair follicle tissue. The same procedure as above (addition of calcium/magnesium-free PBS, suspending by use of a pipette, and precipitation by allowing the suspension to stand for 15 minutes) was repeated three times using the obtained hair follicle tissue.
Then, the hair follicle tissue was treated with a solution containing 0.1% ethylenediaminetetraacetic acid (EDTA) and 0.25% trypsin (Gibco) at 37° C. for 5 minutes. To the resulting mixture was added DMEM containing 10% FCS to prepare a hair follicle tissue cell suspension having a density of 3×10^5 cells/ml. The hair follicle tissue cell suspension was put into wells of a 24-well collagen-coated plate (Iwaki Glass Co., Ltd.) in an amount of 1 ml/well, followed by culturing in 5% CO2 at 37° C. for 24 hours.
During the culturing, the medium was replaced with a fresh one every other day.
As a control, the cells were cultured in the same medium as above except that DMSO alone was added in an amount of 1/100 by volume in place of DMSO containing a phosphatidic acid, and/or procyanidin B-2 or dl-α-tocopherol.
The degree of cell growth was measured according to the method using MTT [3-(4,5-dimethylthiazol-2-yl)-2,5-diphenyl tetrazolium bromide]
To each well of the 24-well microplate (2 cm^2/well) was added a PBS solution of MTT (5 mg/ml) in an amount of 1/10 by volume based on 1 ml of the culture. The plate was shaken to make the mixture homogeneous, followed by culturing in 5% CO2 at 37° C. for 4 hours.

Structure (SMILES)	Relative cell growth rate based on the control as 100 (active ingredient 30 μmol/l)	Relative cell growth rate based on the control as 100 (active ingredient 1 μmol/l)
Cc1c(C)c2c(c(C)c1O)CCC(C)(CCCC(C)CCCC(C)CCCC(C)C)O2 (racemic) [dl-α-Tocopherol, dl-α-tocopherol, reference compound]	184	
CCCCCCCCCCCCCCCCOCC(COP(=O)(O)O)OC(C)=O (centres unmarked) [1-O-hexadecyl-2-O-acetylglyceryl-3-phosphoric acid]		155
CCCCCCCCCCCCCCCCOCC(COP(=O)(O)O)OC (centres unmarked) [1-O-hexadecyl-2-O-methylglyceryl-3-phosphoric acid]		177
CCCCCCCC/C=C\CCCCCCCC(=O)OCC(COP(=O)(O)O)OC (centres unmarked) [1-O-oleoyl-2-O-methylglyceryl-3-phosphoric acid]		163
Oc1cc(O)c2c(c1)O[C@H](c1ccc(O)c(O)c1)[C@H](O)[C@H]2c1c(O)cc(O)c2c1O[C@H](c1ccc(O)c(O)c1)[C@H](O)C2 [Procyanidin B-2, epicatechin-(4β→8)-epicatechin]	310	
